This passage reports IC50 results from ChEMBL document CHEMBL1148964, “New furofuran and butyrolactone lignans with antioxidant activity from the stem bark of Styrax japonica” (J Nat Prod, 2004).

SMILES strings stand for the structures. pIC50: −log10 of the molar value.

The experiment has as its system Radical scavenging activity. As to the kind of experiment: Antioxidant activity assessed as DPPH radical scavenging activity after 30 mins. Type of experiment: functional. Background: Loss of DPPH colour is used to gauge radical scavenging.
The term pIC50 denotes the IC50 on a negative log10 scale, so that one unit is a factor of ten. As to `Cc1c(C)c2c(c(C)c1O)CC[C@@](C)(CCC[C@H](C)CCC[C@H](C)CCCC(C)C)O2` [ALPHA-TOCOPHEROL], the pIC50 is 4.70.
As for `COc1cc([C@@H]2OC[C@@H]3[C@H]2C(=O)O[C@H]3c2ccc3c(c2)OCO3)ccc1O[C@@H]1O[C@H](CO)[C@@H](O)[C@H](O)[C@H]1O` [STYRAXLIGNOLIDE B], the pIC50 is under 3.30.
`COc1ccc(C[C@@H]2C(=O)OC[C@H]2Cc2ccc(O[C@@H]3O[C@H](CO)[C@@H](O)[C@H](O)[C@H]3O)c(OC)c2)cc1O` [STYRAXLIGNOLIDE C]: the pIC50 was 3.42.
Then `COc1cc(C[C@@H]2C(=O)OC[C@H]2Cc2ccc(O[C@@H]3O[C@H](CO)[C@@H](O)[C@H](O)[C@H]3O)c(OC)c2)ccc1O` [STYRAXLIGNOLIDE D], with 3.56.
Next, `COc1cc(C[C@@H]2COC(=O)[C@H]2Cc2ccc(O[C@@H]3O[C@H](CO)[C@@H](O)[C@H](O)[C@H]3O)c(OC)c2)ccc1O` [STYRAXLIGNOLIDE E]: 3.71; `COc1ccc(C[C@@H]2C(=O)OC[C@H]2Cc2ccc(O[C@@H]3O[C@H](CO)[C@@H](O)[C@H](O)[C@H]3O)c(OC)c2)cc1OC` [STYRAXLIGNOLIDE F]: under 3.30.
Next, `COc1cc(/C=C/CO)cc(OC)c1O[C@@H]1O[C@H](CO)[C@@H](O)[C@H](O)[C@H]1O` [SYRINGIN]: under 3.30.
For `CC1(C)CC[C@]2(C)CC=C3[C@]4(C)CC[C@H]5C(C)(C)[C@@H](O)CC[C@]5(C)[C@H]4CC[C@@]3(C)[C@@H]2C1` [TARAXEROL], the pIC50 is under 3.30.
